One test concerns normal human lymphocytes. In words: concanavalin A induced lymphocyte proliferation, [3H]-TdR incorporation. It is filed as cell-based. The conditions noted are these: Homo sapiens, Lymphocyte, 72 hours, read-out: ED50 (the source's name). The gist of the method: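 Ficoll-isolated human peripheral blood mononuclear cells, stimulated with concanavalin A, exposed to six 4-fold compound dilutions (top well concentration 266.7 μM) for 72 h at 37 °C. Proliferation read as [3H]-TdR incorporation over 6 h by scintillation counting; ED50 taken from dose-response curves relative to control cpm.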

Test [1] deals with T-lymphoblastic leukemia cell line CEM. The experiment in a line: MTT cytotoxicity assay, CEM. To be noted: Homo sapiens, 72 hours (TCS50 in the method). It is filed as cell-based, human. The method, boiled down:
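Cells pre-incubated 24 h, then exposed to six 4-fold dilutions (top well concentration typically 266.7 μM) in duplicate for 72 h at 37 °C, 5% CO2. MTT read-out, SDS-solubilized formazan measured at 540 nm. TCS50, the concentration lethal to 50% of tumour cells, derived from dose-response curves.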

As usually defined, the IC50 is the concentration that inhibits the measured activity by half. The low end stands for greater potency, the high end for weaker potency. Consider `CCCCCCNc1nc(NC(CO)c2ccccc2)c2ncn(C(C)C)c2n1` (centres unmarked) [P23, 2-(hexylamino)-6-(1-phenyl-2-hydroxyethylamino)-9-isopropylpurine], for which the EC50 in the test on normal human lymphocytes stood at 56 µM. The compound further gave an IC50 in test [1] of 34 µM.
